Columns and labels:
DLD1 WT cells = assay: DLD1 viability assay (CellTiter-Glo, 7 days), DLD1 WT; type: cell-based; conditions: Homo sapiens, DLD-1, 168 h
Protocol: (§1) The seeding densities are pre-determined from the growth curve kinetics performed to ensure log linear phase of cell growth for these 2 cell lines. These assay plates are then placed in the incubator at 37° C., 5% CO2, relative humidity>90% for a few hours before addition of test compounds. Compounds are dispensed using the Tecan HPD300 or Echo based on the plate map in the appropriate wells of the 384-well plates. […] After addition of the test compounds, the plates are incubated at 37° C., 5% CO2, relative humidity>90% for 7 days. CellTiter-Glo (Promega Cat. No. G7573), ATP detection reagent is prepared according to manufacturer's specifications. Cell assay plates are removed from incubator and bring to room temperature (RT) by letting them sit at bench top for at least 15 min. Using the MultiDrop liquid handler or a multichannel pipette, 35 μL/well of CTG is added and the plates are then placed shakes for 5 seconds, RT. These plates are then incubated for 30 minutes in the dark at RT before measuring luminescence using Spectramax/Enspire/Ensight/Envision/PheraSTAR.

DLD1 BRCA2 (−/−) cells = assay: DLD1 viability assay (CellTiter-Glo, 7 days), DLD1 BRCA2 (−/−); type: cell-based; conditions: Homo sapiens, DLD-1, 168 h, read-out: Viability IC50 (μM) DLD1 BRCA2 null
Protocol: as §1

| IC50 (DLD1 WT cells) | IC50 (DLD1 BRCA2 (−/−) cells) | SMILES |
| --- | --- | --- |
| > 10 µM | 0.1 to 0.25 µM | COc1cnc(Cl)cc1-c1cc(C)ncc1C(=O)Nc1nc2ncc(N3CC[C@](C)(OC)[C@H](F)C3)nc2s1 (single isomer, unassigned) [Example 362, 2′-chloro-N-(6-((3R or S,4S or R)-3-fluoro-4-methoxy-4-methylpiperidin-1-yl)thiazolo[4,5-b]pyrazin-2-yl)-5′-methoxy-6-methyl-[4,4′-bipyridine]-3-carboxamide] |
| > 10 µM | 0.1 to 0.25 µM | COc1cnc(Cl)cc1-c1cc(C)ncc1C(=O)Nc1nc2ncc([C@H]3CCN(CC(F)(F)F)C3)nc2s1 (single isomer, unassigned) [Example 364, (S or R)-2′-chloro-5′-methoxy-6-methyl-N-(6-(1-(2,2,2-trifluoroethyl)pyrrolidin-3-yl)thiazolo[4,5-b]pyrazin-2-yl)-[4,4′-bipyridine]-3-carboxamide] |
| > 10 µM | 0.001 to 0.1 µM | COc1cnc(Cl)cc1-c1cc(C)ncc1C(=O)Nc1nc2ncc([C@@H]3CCN(CC(F)(F)F)C3)nc2s1 (single isomer, unassigned) [Example 365, (R or S)-2′-chloro-5′-methoxy-6-methyl-N-(6-(1-(2,2,2-trifluoroethyl)pyrrolidin-3-yl)thiazolo[4,5-b]pyrazin-2-yl)-[4,4′-bipyridine]-3-carboxamide] |
| > 10 µM | 0.001 to 0.1 µM | COc1cnc(Cl)cc1-c1cc(C)ncc1C(=O)Nc1nc2ncc(N3CC[C@](C)(O)[C@H](F)C3)nc2s1 (single isomer, unassigned) [Example 375, 2′-chloro-N-(6-((3R or S,4S or R)-3-fluoro-4-hydroxy-4-methylpiperidin-1-yl)thiazolo[4,5-b]pyrazin-2-yl)-5′-methoxy-6-methyl-[4,4′-bipyridine]-3-carboxamide] |
| > 10 µM | 0.001 to 0.1 µM | COc1cnc(Cl)cc1-c1cc(C)ncc1C(=O)Nc1nc2ncc(N3CC[C@@](C)(O)[C@@H](F)C3)nc2s1 (single isomer, unassigned) [Example 376, 2′-chloro-N-(6-((3S or R,4R or S)-3-fluoro-4-hydroxy-4-methylpiperidin-1-yl)thiazolo[4,5-b]pyrazin-2-yl)-5′-methoxy-6-methyl-[4,4′-bipyridine]-3-carboxamide] |
| > 10 µM | 0.001 to 0.1 µM | COc1cnc(Cl)cc1-c1cc(C)ncc1C(=O)Nc1nc2ncc(C3CN(CC(F)(F)F)C3)nc2s1 (single isomer, unassigned) [Example 378, 2′-chloro-5′-methoxy-6-methyl-N-(6-(1-(2,2,2-trifluoroethyl)azetidin-3-yl)thiazolo[4,5-b]pyrazin-2-yl)-[4,4′-bipyridine]-3-carboxamide] |
| > 10 µM | 0.001 to 0.1 µM | COc1cnc(Cl)cc1-c1cc(C)ncc1C(=O)Nc1nc2ncc([C@H]3CCOC(C)(C)C3)nc2s1 (single isomer, unassigned) [Example 379, (S or R)-2′-chloro-N-(6-(2,2-dimethyltetrahydro-2H-pyran-4-yl)thiazolo[4,5-b]pyrazin-2-yl)-5′-methoxy-6-methyl-[4,4′-bipyridine]-3-carboxamide] |
| > 10 µM | 0.001 to 0.1 µM | COc1cnc(Cl)cc1-c1cc(C)ncc1C(=O)Nc1nc2ncc([C@@H]3CCOC(C)(C)C3)nc2s1 (single isomer, unassigned) [Example 382, (R or S)-2′-chloro-N-(6-(2,2-dimethyltetrahydro-2H-pyran-4-yl)thiazolo[4,5-b]pyrazin-2-yl)-5′-methoxy-6-methyl-[4,4′-bipyridine]-3-carboxamide] |
| > 10 µM | 0.001 to 0.1 µM | COc1cnc(Cl)cc1-c1cc(C)ncc1C(=O)Nc1nc2ncc(N3CCO[C@H](C)[C@@H]3C)nc2s1 (single isomer, unassigned) [Example 400, 2′-chloro-N-(6-((2R or S,3S or R)-2,3-dimethylmorpholino)thiazolo [4,5-b]pyrazin-2-yl)-5′-methoxy-6-methyl-[4,4′-bipyridine]-3-carboxamide] |

Reference: US20260015360A1 (MOMA Therapeutics, Inc., priority 2023, published 2026)
